Test results from PubChem BioAssay (NCI).
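Cells were grown in 96-well plates and exposed to each compound for 48 hours at five concentrations; endpoints were interpolated linearly between bracketing concentrations, or set to the highest concentration if not reached. The concentration for 50% growth inhibition is given as GI50. At the TGI there is no net growth.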

Key:
Test in all cases: inhibition of tumour cell growth, NCI panel, 48 h
CAKI-1 renal = system: CAKI-1 renal
HCC-2998 colon = system: HCC-2998 colon
NCI-H522 lung = system: NCI-H522 lung
UACC-257 melanoma = system: UACC-257 melanoma
SW-620 colon = system: SW-620 colon
EKVX NSCLC = system: EKVX NSCLC
SK-OV-3 ovarian = system: SK-OV-3 ovarian
OVCAR-3 ovarian = system: OVCAR-3 ovarian
A498 renal = system: A498 renal
SK-MEL-28 melanoma = system: SK-MEL-28 melanoma
SK-MEL-5 melanoma = system: SK-MEL-5 melanoma
NCI-H23 lung = system: NCI-H23 lung
OVCAR-5 ovarian = system: OVCAR-5 ovarian
ACHN renal = system: ACHN renal
HOP-92 NSCLC = system: HOP-92 NSCLC
DU-145 prostate = system: DU-145 prostate
HT29 colon = system: HT29 colon
RXF 393 renal = system: RXF 393 renal
SR leukemia = system: SR leukemia
NCI-H226 lung = system: NCI-H226 lung
CCRF-CEM leukemia = system: CCRF-CEM leukemia
SF-539 CNS = system: SF-539 CNS
PC-3 prostate = system: PC-3 prostate
HCT-15 colon = system: HCT-15 colon
MOLT-4 leukemia = system: MOLT-4 leukemia
A549 NSCLC = system: A549 NSCLC
K-562 leukemia = system: K-562 leukemia
SF-268 CNS = system: SF-268 CNS
T-47D breast = system: T-47D breast
SK-MEL-2 melanoma = system: SK-MEL-2 melanoma
HS 578T breast = system: HS 578T breast
HL-60(TB) leukemia = system: HL-60(TB) leukemia
UACC-62 melanoma = system: UACC-62 melanoma
KM12 colon = system: KM12 colon
U251 CNS = system: U251 CNS

Structure (SMILES): O=C(N1CCC(CN=c2cc3n(-c4ccc(Cl)cc4)c4ccccc4nc-3cc2Nc2ccc(Cl)cc2)CC1)N1CC1
- GI50 (CAKI-1 renal): 1380 nM
- TGI (CAKI-1 renal): 3880 nM
- GI50 (HCC-2998 colon): 632 nM
- TGI (HCC-2998 colon): 1580 nM
- GI50 (NCI-H522 lung): 1320 nM
- TGI (NCI-H522 lung): 2730 nM
- GI50 (UACC-257 melanoma): 605 nM
- TGI (UACC-257 melanoma): 1890 nM
- GI50 (SW-620 colon): 709 nM
- TGI (SW-620 colon): 2050 nM
- GI50 (EKVX NSCLC): 1530 nM
- TGI (EKVX NSCLC): 3220 nM
- GI50 (SK-OV-3 ovarian): 2250 nM
- TGI (SK-OV-3 ovarian): 4640 nM
- GI50 (OVCAR-3 ovarian): 1100 nM
- TGI (OVCAR-3 ovarian): 2690 nM
- GI50 (A498 renal): 1750 nM
- TGI (A498 renal): 3610 nM
- GI50 (SK-MEL-28 melanoma): 519 nM
- TGI (SK-MEL-28 melanoma): 981 nM
- GI50 (SK-MEL-5 melanoma): 1490 nM
- TGI (SK-MEL-5 melanoma): 2810 nM
- GI50 (NCI-H23 lung): 1650 nM
- TGI (NCI-H23 lung): 3230 nM
- GI50 (OVCAR-5 ovarian): 1850 nM
- TGI (OVCAR-5 ovarian): 3390 nM
- GI50 (ACHN renal): 1630 nM
- TGI (ACHN renal): 3210 nM
- GI50 (HOP-92 NSCLC): 13500 nM
- TGI (HOP-92 NSCLC): 37000 nM
- GI50 (DU-145 prostate): 1300 nM
- TGI (DU-145 prostate): 2650 nM
- GI50 (HT29 colon): 204 nM
- TGI (HT29 colon): 547 nM
- GI50 (RXF 393 renal): 369 nM
- TGI (RXF 393 renal): 1290 nM
- GI50 (SR leukemia): 337 nM
- TGI (SR leukemia): 2250 nM
- GI50 (NCI-H226 lung): 23600 nM
- TGI (NCI-H226 lung): 74200 nM
- GI50 (CCRF-CEM leukemia): 253 nM
- TGI (CCRF-CEM leukemia): 1150 nM
- GI50 (SF-539 CNS): 1630 nM
- TGI (SF-539 CNS): 3130 nM
- GI50 (PC-3 prostate): 1630 nM
- TGI (PC-3 prostate): 3380 nM
- GI50 (HCT-15 colon): 512 nM
- TGI (HCT-15 colon): 1870 nM
- GI50 (MOLT-4 leukemia): 792 nM
- TGI (MOLT-4 leukemia): 3910 nM
- GI50 (A549 NSCLC): 710 nM
- TGI (A549 NSCLC): 11700 nM
- GI50 (K-562 leukemia): 286 nM
- GI50 (SF-268 CNS): 1300 nM
- TGI (SF-268 CNS): 3690 nM
- GI50 (T-47D breast): 2410 nM
- TGI (T-47D breast): 5910 nM
- GI50 (SK-MEL-2 melanoma): 632 nM
- TGI (SK-MEL-2 melanoma): 2040 nM
- GI50 (HS 578T breast): 1480 nM
- TGI (HS 578T breast): 3540 nM
- GI50 (HL-60(TB) leukemia): 1500 nM
- TGI (HL-60(TB) leukemia): 3640 nM
- GI50 (UACC-62 melanoma): 1920 nM
- TGI (UACC-62 melanoma): 3470 nM
- GI50 (KM12 colon): 1400 nM
- TGI (KM12 colon): 3210 nM
- GI50 (U251 CNS): 1230 nM
- TGI (U251 CNS): 2480 nM
